Paper PMC6617451, “Dual Kit/Aur Inhibitors as Chemosensitizing Agents for the Treatment of Melanoma: Design, Synthesis, Docking Studies and Functional Investigation” (Scientific Reports, 2019)
Several values for one entry are separate records, joined by “and”; a condition that tells them apart may be missing. Equal values may be shown once.

Assays:
AurA = target: T1, AurA (Homo sapiens, UniProt O14965); assay: Protein kinase inhibitory assay, AurA; assay type: biochemical; conditions: 10 μM test compound
T1 construct: purchased ThermoFisher Scientific
T1 sequence (O14965 1-403): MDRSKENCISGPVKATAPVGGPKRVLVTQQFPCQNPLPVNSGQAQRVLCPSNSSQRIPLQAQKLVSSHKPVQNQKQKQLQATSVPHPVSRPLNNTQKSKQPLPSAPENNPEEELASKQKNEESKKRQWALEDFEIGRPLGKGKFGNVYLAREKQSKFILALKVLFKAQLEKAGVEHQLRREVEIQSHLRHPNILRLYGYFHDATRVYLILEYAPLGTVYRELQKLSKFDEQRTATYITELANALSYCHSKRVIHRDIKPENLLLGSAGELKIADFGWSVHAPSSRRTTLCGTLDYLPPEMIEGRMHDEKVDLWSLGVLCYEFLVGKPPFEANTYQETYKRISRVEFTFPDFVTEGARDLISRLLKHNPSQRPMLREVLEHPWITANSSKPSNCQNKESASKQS

AurC = target: T2, AurC (Homo sapiens, UniProt Q9UQB9); assay: Protein kinase inhibitory assay, AurC; assay type: biochemical; conditions: 10 μM test compound
T2 construct: purchased ThermoFisher Scientific
T2 sequence (Q9UQB9 1-309): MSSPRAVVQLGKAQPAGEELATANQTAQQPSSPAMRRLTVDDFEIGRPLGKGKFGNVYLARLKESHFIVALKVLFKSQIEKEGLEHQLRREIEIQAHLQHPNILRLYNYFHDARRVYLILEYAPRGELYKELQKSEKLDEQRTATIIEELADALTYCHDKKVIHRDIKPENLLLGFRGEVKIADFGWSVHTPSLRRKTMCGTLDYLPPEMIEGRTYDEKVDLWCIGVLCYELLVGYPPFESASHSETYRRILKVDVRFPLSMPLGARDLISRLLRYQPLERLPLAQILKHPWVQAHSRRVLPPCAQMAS
Procedure: (§1) Cell culture media EMEM and DMEM, fetal bovine serum (FBS), L-glutamine, and antibiotics were from Sigma-Aldrich St. Louis, MO, USA). Vemurafenib was purchased from Selleckchem (Munich, Germany). Human recombinant protein kinases and Protein kinase assay kits were from ThermoFisher Scientific (MA, US). Plastics were supplied by Sarstedt (Verona, Italy).
(§2) Inhibitory assays were performed in accordance with a previously reported procedure, standardized for RET and VEGFR2[28],[41]. Test compounds were dissolved in 100% DMSO and diluted to the appropriate concentrations with the reaction buffer, provided by the kit. […] The inhibitory effect of the novel compounds was routinely estimated at 10 μM concentration.

WM266-4 cell line = assay: Proliferation assay, WM266-4 melanoma cells (single agents and combination, Chou-Talalay); assay type: cell-based, human; conditions: for Dose Reduction Index (DRI) 6a + vemurafenib: DRI of each drug in the combination
Procedure: (§3) Compound 6a, merging the best inhibitory profile against the target c-Kit/AurB kinases, was tested on the human A2058 (American Type Culture Collection, Manassas, USA) and WM266-4 (European Collection of Authenticated Cell Cultures, Salisbury, UK) cell lines, chosen as representative of BRAF-mutated melanoma cell lines, to investigate its anti-proliferative efficacy. […]. Vemurafenib, the BRAF V600E inhibitor currently used for the treatment of inoperable, metastatic melanoma, was used as the reference compound. […] The level of possible interaction between the two kinase inhibitors, synergistic, additive or antagonist in nature, was determined by the method of Chou-Talaly[38] and quantitated through the combination index (CI), calculated exploiting the following multiple drug-effect Eq. (1)1 CI=[(D)1/(Dx)1]+[(D)2/(Dx)2] and referred to as synergism, additive effect and antagonism when CI < 1, CI = 1 and CI > 1, respectively.
(§4) The Dose Reduction Index (DRI) was calculated as well, to assess the theoretical magnitude of concentration reduction allowed for the two drugs when given in synergistic combination in vitro to achieve the same effect as that obtained with the concentration of each single agent. DRI was calculated by the following Eq. (2):2 (DRI)=(Dx)/(D)
(§5) Test compounds 6a and vemurafenib were dissolved in a stock solution of 10 mM in 100% dimethylsulfoxide (DMSO) for in vitro studies. DMSO concentration in the control’s media was the same used to make up the highest concentration of test compounds in growth media for the same experiment. In vitro chemosensitivity was tested on melanoma WM266-4 and A2058 cell lines. Cells were grown in EMEM and DMEM media, respectively, plated in sterile 24-well plastic plates and treated for 72 h (using 10^3 cells/well in 1 mL of medium) with added 6a (range of 1–100 μM), or vemurafenib (0.0001–100 μM) alone. The synergistic effect between 6a and vemurafenib was calculated with the method of Chou-Talaly[38] based on the multiple drug-effect equation and quantitated by the combination index (CI) and the dose reduction index (DRI), where CI < 1 and DRI > 1 indicate synergism. At the end of the experiment, cells were harvested with trypsin/EDTA, and viable cells were quantified using the automatic cell counter ADAM MC Digital B (Twin Helix, Milano, Italy). The data are presented as the percentage of vehicle-treated cells. […] All experiments were repeated independently three times with at least nine samples for each concentration.

A2058 cell line = assay: Proliferation assay, A2058 melanoma cells (single agents and combination, Chou-Talalay); assay type: cell-based, human; conditions: for Dose Reduction Index (DRI) 6a + vemurafenib: DRI of each drug in the combination
Procedure: as §3, §4, §5

c-Kit phosphorylation = target: T3, c-Kit phosphorylation (Homo sapiens, UniProt P10721); assay: c-Kit phosphorylation ELISA assay in melanoma cells; assay type: cell-based; conditions: WM266-4 and A2058 cells, 6a 10 μM, 72 h, vs vehicle-treated
T3 construct: endogenous in cells; host or cells: WM266-4 and A2058 human melanoma cells
Procedure: (§6) WM266-4 and A2058 cells (5 × 10^4 cells/well) were treated for 72 h with compound 6a (10 μM) or with vehicle alone. To measure phospho c-Kit and phospho AurB, at the end of the experiment, the cells were harvested and immediately frozen with liquid nitrogen. Cells were then lysed and the total protein was measured. In each sample, an equal amount of proteins was then assayed for human c-Kit and AurB phosporylation by the Human Phospho-CD117/c-kit ELISA Kit (Assaysolution; Woburn, MA, USA) and the AurB (Phospho-Thr232) ELISA Kit (Aviva System Biology; San Diego, CA, USA) and normalized by total protein c-Kit and AurB concentration measured by c-Kit and AurB ELISA kits, respectively. The optical density was determined using the microplate reader Multiskan Spectrum set to 450 nm. All experiments were repeated, independently, six times with at least nine samples for each concentration. The data were expressed as the ratio of phosphorylated c-Kit or AurB/total c-Kit or AurB.

AurB phosphorylation = target: T4, AurB phosphorylation (Homo sapiens, UniProt Q96GD4); assay: AurB phosphorylation (Phospho-Thr232) ELISA assay in melanoma cells; assay type: cell-based; conditions: WM266-4 and A2058 cells, 6a 10 μM, 72 h, vs vehicle-treated
T4 construct: endogenous in cells; host or cells: WM266-4 and A2058 human melanoma cells
Procedure: as §6

AurB = target: T5, AurB (Homo sapiens, UniProt Q96GD4); assay: Protein kinase inhibitory assay, AurB; assay type: biochemical; conditions: 10 μM test compound
T5 construct: purchased ThermoFisher Scientific
Procedure: as §1, §2

[1] = WM266-4, affected cell fraction 75%
[2] = WM266-4, affected cell fraction 85%
[3] = WM266-4, affected cell fraction 95%
[4] = A2058, affected cell fraction 75%
[5] = A2058, affected cell fraction 85%

T5 sequence (Q96GD4 whole entry): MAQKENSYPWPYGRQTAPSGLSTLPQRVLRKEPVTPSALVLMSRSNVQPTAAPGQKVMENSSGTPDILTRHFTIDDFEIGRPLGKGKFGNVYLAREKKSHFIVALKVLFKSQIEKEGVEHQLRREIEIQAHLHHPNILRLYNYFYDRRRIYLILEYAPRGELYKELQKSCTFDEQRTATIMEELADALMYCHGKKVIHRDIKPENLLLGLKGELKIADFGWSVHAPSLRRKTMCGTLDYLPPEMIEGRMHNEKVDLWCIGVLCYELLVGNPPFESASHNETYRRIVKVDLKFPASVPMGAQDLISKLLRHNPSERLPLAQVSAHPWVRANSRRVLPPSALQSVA
T3 sequence (P10721 26-976): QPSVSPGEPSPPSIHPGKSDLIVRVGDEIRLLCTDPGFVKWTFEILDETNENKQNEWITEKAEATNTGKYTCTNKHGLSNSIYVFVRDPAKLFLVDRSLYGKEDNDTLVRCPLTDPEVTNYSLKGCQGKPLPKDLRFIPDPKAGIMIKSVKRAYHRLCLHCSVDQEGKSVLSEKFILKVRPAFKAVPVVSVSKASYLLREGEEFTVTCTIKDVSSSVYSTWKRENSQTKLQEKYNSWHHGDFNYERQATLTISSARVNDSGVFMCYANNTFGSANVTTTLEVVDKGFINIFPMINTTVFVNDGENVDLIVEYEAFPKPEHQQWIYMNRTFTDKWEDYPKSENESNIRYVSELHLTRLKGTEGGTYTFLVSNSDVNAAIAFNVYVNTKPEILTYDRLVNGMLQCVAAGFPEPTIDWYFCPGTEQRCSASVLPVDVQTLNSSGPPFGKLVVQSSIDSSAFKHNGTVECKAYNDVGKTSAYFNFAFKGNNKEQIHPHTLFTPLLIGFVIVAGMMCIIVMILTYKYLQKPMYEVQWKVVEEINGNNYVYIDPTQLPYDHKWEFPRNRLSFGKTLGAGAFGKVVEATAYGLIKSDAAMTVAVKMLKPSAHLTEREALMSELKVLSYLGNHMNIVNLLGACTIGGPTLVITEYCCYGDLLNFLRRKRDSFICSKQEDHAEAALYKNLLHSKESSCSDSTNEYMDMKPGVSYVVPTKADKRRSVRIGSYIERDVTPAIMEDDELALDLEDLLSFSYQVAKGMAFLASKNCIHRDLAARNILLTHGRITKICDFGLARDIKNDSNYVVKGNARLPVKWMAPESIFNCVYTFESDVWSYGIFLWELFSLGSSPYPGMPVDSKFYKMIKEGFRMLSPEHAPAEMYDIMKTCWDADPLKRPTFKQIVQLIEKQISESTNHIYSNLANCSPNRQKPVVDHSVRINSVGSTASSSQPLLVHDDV
T4 sequence (Q96GD4 whole entry): as the sequence (Q96GD4 whole entry) above

Structure (SMILES) | percentage of kinase inhibition, AurA (AurA) | percentage of kinase inhibition, AurB (AurB) | Dose Reduction Index (DRI) 6a + vemurafenib (WM266-4 cell line; [1]) | Dose Reduction Index (DRI) 6a + vemurafenib (WM266-4 cell line; [2]) | Dose Reduction Index (DRI) 6a + vemurafenib (WM266-4 cell line; [3]) | Dose Reduction Index (DRI) 6a + vemurafenib (A2058 cell line; [4]) | Dose Reduction Index (DRI) 6a + vemurafenib (A2058 cell line; [5]) | further results
O=C(Nc1ccc(SCc2n[nH]c(-c3ccc(Br)cc3)n2)cc1)Nc1ccc(C(F)(F)F)cc1 [Compound 6g] | no inhibitory activity | – | – | – | – | – | – | –
COc1ccc(NC(=O)Nc2ccc(SCc3n[nH]c(-c4ccc(Br)cc4)n3)cc2)cc1OC [Compound 6h] | – | no inhibitory activity | – | – | – | – | – | –
CCCS(=O)(=O)Nc1ccc(F)c(C(=O)c2c[nH]c3ncc(-c4ccc(Cl)cc4)cc23)c1F [vemurafenib] | – | – | 1.1 | 1.2 | 1.4 | 21.8 | 22.2 | Dose Reduction Index (DRI) 6a + vemurafenib (A2058 cell line; A2058, affected cell fraction 95%): 22.9

Second part, led by results:

percentage of kinase inhibition, AurA (AurA) | percentage of kinase inhibition, AurB (AurB) | Structure (SMILES) | Dose Reduction Index (DRI) 6a + vemurafenib (WM266-4 cell line; [1]) | Dose Reduction Index (DRI) 6a + vemurafenib (WM266-4 cell line; [2]) | Dose Reduction Index (DRI) 6a + vemurafenib (WM266-4 cell line; [3]) | Dose Reduction Index (DRI) 6a + vemurafenib (A2058 cell line; [4]) | Dose Reduction Index (DRI) 6a + vemurafenib (A2058 cell line; [5]) | further results
most active of the synthesized series | – | O=C(Nc1ccccc1)Nc1ccc(SCc2n[nH]c(-c3ccccc3)n2)cc1 [Compound 6a, 1-phenyl-3-(4-(((3-phenyl-1H-1,2,4-triazol-5-yl)methyl)thio)phenyl)urea] | 374.9 | 272.1 | 150 and 147.9 | 494.1 | 429.0 | percentage of kinase inhibition, AurC (AurC): most effective of the whole series; IC50 (WM266-4 cell line; Homo sapiens, WM 266-4, WM266-4, BRAF V600E, 72 h exposure, read-out: IC50 antiproliferative activity): 9.65 µM; IC50 (A2058 cell line; Homo sapiens, A2058, BRAF V600D, 72 h exposure, read-out: IC50 antiproliferative activity): 11.4 µM; inhibition of c-Kit phosphorylation (ratio phosphorylated c-Kit/total c-Kit) (c-Kit phosphorylation): significant inhibition of c-Kit phosphorylation; quantity of the phosphorylated form of AurB (ratio phosphorylated AurB/total AurB) (AurB phosphorylation): weakly reduced
no inhibitory activity | no inhibitory activity | CN(C)c1ccc(NC(=O)Nc2ccc(SCc3n[nH]c(-c4ccc(Cl)cc4)n3)cc2)cc1 [Compound 6e] | – | – | – | – | – | –
